System: 521955-158-R7-J2-PDC spheroids, viability % test/control
Assay: Anticancer human tumor 521955-158-R7-J2-PDC patient-derived pancreatic carcinoma cell line growth inhibition [TAK]
Conditions: spheroids with HUVEC and MSC; for IC50: curve of first compound; for viability, T/C: stronger effect = lower value
Excerpt: Combinatorial screen of targeted agents with TAK-243 and ipatasertib in multi-cell type tumor spheroids
A high-throughput screen of multi-cell type tumor spheroids was designed to identify active combinations of targeted small molecules and TAK-243 or ipatasertib. Complex spheroids include a stromal component modeled by human endothelial cells (HUVEC) and fibroblasts modeled by human mesenchymal stem cells (MSCs). The concentration ranges selected for each drug and investigational agent were based upon clinically achievable concentrations if the clinical Cmax of the agent was known.
Compounds. The drugs and investigational agents: TAK-243 (785004), ipatasertib (767898), everolimus (733504), selumetinib (741078), bortezomib (756655), trametinib (758246), ixazomib (758254), vemurafenib (761431), dabrafenib (764134), sapanisertib (764658), alpelisib (765974), and copanlisib (816437), were obtained from the National Cancer Institute (NCI) Developmental Therapeutics Program Chemical Repository. The FDA-approved anticancer drug set is available from the NCI Developmental Therapeutics Program. […] The stock solutions were prepared in dimethyl sulfoxide (DMSO, Sigma-Aldrich, St. Louis, MO, cat. D2650) at 800-fold the tested concentration and stored at -70 degrees C prior to their use. All drugs and investigational agents were tested over a range starting from a high concentration at or near the clinical Cmax and decreasing in half-log increments. If the clinical Cmax for an agent had not been determined, the highest concentration tested was 10 microM.
NCI60 Cell Culture. NCI60 cell lines were obtained from the NCI Developmental Therapeutics Program Tumor Repository. For each lot of cells, the Repository performed Applied Biosystems AmpFLSTR Identifiler testing with PCR amplification to confirm consistency with the published Identifier STR profile for each cell line. Cells were kept in continuous culture for no more than 20 passages. The optimal seeding densities for each of the cell lines at each time point assessed were determined prior to performing the concentration response studies. Briefly, the NCI60 human tumor lines were grown as monolayers in RPMI 1640 medium supplemented with 10% FBS and 2 mmol/L L-glutamine.
An additional 2 lines were from the NCI60 cell line panel including melanomas, MALME-3M and SK-MEL-2. Pooled donor human umbilical vein endothelial cells (HUVEC, Lonza, cat. CC-2519) and human mesenchymal stem cells (hMSC, Lonza, cat. PT-2501) were purchased from Lonza (Walkersville, MD).
PDMR cell lines were grown in complete medium (DC medium): Dulbecco's modified Eagle's medium (DMEM)/F12 supplemented with 5% fetal bovine serum (FBS), 2 mM L-glutamine, 100 U/mL penicillin and 100 µg/ml streptomycin, 0.4 µg/ml hydrocortisone, 10 ng/ml epidermal growth factor (EGF) recombinant human protein, 24 µg/mL adenine, and 0.1 mg/mL primocin. During culture from frozen stock vials, PDMR cells were cultured in the same medium containing 10 µM Y-27632 (see Table 3). The PDCs were cultured in complete DMEM/F12 media without 10 microM Y-27632 dihydrochloride for at least two passages prior to the screen. The pooled donor HUVEC and hMSC were cultured in endothelial cell growth medium 2 (PromoCell, Heidelberg, Germany, cat. C-22011) and mesenchymal stem cell growth medium 2 (PromoCell, cat. C-28009), respectively. For all experiments, HUVEC and hMSC were used at passages </=5.
For the pre-screen, cell seeding densities were determined from a titration spanning the range from 5,000 to 313 cells per well. The mct-spheroids including 60% malignant cells, 25% HUVEC and 15% MSC dispensed as a mixture into U-bottom Ultra-Low Attachment 384-well plates (Corning, NY)
High-throughput Drug Combination Screening.
Prior to their inoculation into 384-well plates, malignant cells, HUVEC, and hMSC were removed from T flasks using TrypLE express (Thermo Fisher Scientific, cat. 12605036) and harvested by centrifugation for 5 min at 233 x g. […]
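Further: spheroids exposed to compound for 7 days before readout.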

SMILES: CC(=O)Nc1cccc(-n2c(=O)n(C3CC3)c(=O)c3c(Nc4ccc(I)cc4F)n(C)c(=O)c(C)c32)c1 + CC(C)NCC(C(=O)N1CCN(c2ncnc3c2C(C)CC3O)CC1)c1ccc(Cl)cc1
- IC50 (second compound 0.3 µM): 1.34 nM
- IC50 (second compound 0.949 µM): 1.4 nM
- IC50 (second compound 3 µM): 0.802 nM
- IC50 (second compound 9.49 µM): 0.763 nM
- IC50 (second compound 30 µM): 0.786 nM
- viability, T/C (second compound 0.3 µM, first compound 94.9 pM): 98.9%
- viability, T/C (second compound 0.3 µM, first compound 0.0003 µM): 79.8%
- viability, T/C (second compound 0.3 µM, first compound 0.000949 µM): 51.1%
- viability, T/C (second compound 0.3 µM, first compound 0.003 µM): 39.4%
- viability, T/C (second compound 0.3 µM, first compound 0.00949 µM): 23.8%
- viability, T/C (second compound 0.3 µM, first compound 0.03 µM): 11.7%
- viability, T/C (second compound 0.949 µM, first compound 94.9 pM): 106%
- viability, T/C (second compound 0.949 µM, first compound 0.0003 µM): 83.6%
- viability, T/C (second compound 0.949 µM, first compound 0.000949 µM): 50.4%
- viability, T/C (second compound 0.949 µM, first compound 0.003 µM): 39.7%
- viability, T/C (second compound 0.949 µM, first compound 0.00949 µM): 24.9%
- viability, T/C (second compound 0.949 µM, first compound 0.03 µM): 10.5%
- viability, T/C (second compound 3 µM, first compound 94.9 pM): 99.6%
- viability, T/C (second compound 3 µM, first compound 0.0003 µM): 61.7%
- viability, T/C (second compound 3 µM, first compound 0.000949 µM): 50.2%
- viability, T/C (second compound 3 µM, first compound 0.003 µM): 31.8%
- viability, T/C (second compound 3 µM, first compound 0.00949 µM): 23%
- viability, T/C (second compound 3 µM, first compound 0.03 µM): 8.8%
- viability, T/C (second compound 9.49 µM, first compound 94.9 pM): 82.7%
- viability, T/C (second compound 9.49 µM, first compound 0.0003 µM): 68.7%
- viability, T/C (second compound 9.49 µM, first compound 0.000949 µM): 40.3%
- viability, T/C (second compound 9.49 µM, first compound 0.003 µM): 32.1%
- viability, T/C (second compound 9.49 µM, first compound 0.00949 µM): 25%
- viability, T/C (second compound 9.49 µM, first compound 0.03 µM): 7.94%
- viability, T/C (second compound 30 µM, first compound 94.9 pM): 93.1%
- viability, T/C (second compound 30 µM, first compound 0.0003 µM): 61.4%
- viability, T/C (second compound 30 µM, first compound 0.000949 µM): 44.3%
- viability, T/C (second compound 30 µM, first compound 0.003 µM): 35.5%
- viability, T/C (second compound 30 µM, first compound 0.00949 µM): 20.4%
- viability, T/C (second compound 30 µM, first compound 0.03 µM): 4.94%

SMILES: CC(C)CC(NC(=O)C(Cc1ccccc1)NC(=O)c1cnccn1)B(O)O (stereo not given) + CC(C)NCC(C(=O)N1CCN(c2ncnc3c2C(C)CC3O)CC1)c1ccc(Cl)cc1
- IC50 (second compound 0.3 µM): 5.61 nM
- IC50 (second compound 0.949 µM): 5.38 nM
- IC50 (second compound 3 µM): 5.61 nM
- IC50 (second compound 9.49 µM): 5.21 nM
- IC50 (second compound 30 µM): 5.09 nM
- viability, T/C (second compound 0.3 µM, first compound 31.6 pM): 113%
- viability, T/C (second compound 0.3 µM, first compound 0.0001 µM): 87.5%
- viability, T/C (second compound 0.3 µM, first compound 0.000316 µM): 92%
- viability, T/C (second compound 0.3 µM, first compound 0.001 µM): 104%
- viability, T/C (second compound 0.3 µM, first compound 0.00316 µM): 92.7%
- viability, T/C (second compound 0.3 µM, first compound 0.01 µM): 6.67%
- viability, T/C (second compound 0.949 µM, first compound 31.6 pM): 94.7%
- viability, T/C (second compound 0.949 µM, first compound 0.0001 µM): 82.4%
- viability, T/C (second compound 0.949 µM, first compound 0.000316 µM): 77.3%
- viability, T/C (second compound 0.949 µM, first compound 0.001 µM): 82.8%
- viability, T/C (second compound 0.949 µM, first compound 0.00316 µM): 92.2%
- viability, T/C (second compound 0.949 µM, first compound 0.01 µM): 8.18%
- viability, T/C (second compound 3 µM, first compound 31.6 pM): 93.4%
- viability, T/C (second compound 3 µM, first compound 0.0001 µM): 101%
- viability, T/C (second compound 3 µM, first compound 0.000316 µM): 86.6%
- viability, T/C (second compound 3 µM, first compound 0.001 µM): 84.9%
- viability, T/C (second compound 3 µM, first compound 0.00316 µM): 93.1%
- viability, T/C (second compound 3 µM, first compound 0.01 µM): 7.99%
- viability, T/C (second compound 9.49 µM, first compound 31.6 pM): 92.7%
- viability, T/C (second compound 9.49 µM, first compound 0.0001 µM): 95.9%
- viability, T/C (second compound 9.49 µM, first compound 0.000316 µM): 68.7%
- viability, T/C (second compound 9.49 µM, first compound 0.001 µM): 80%
- viability, T/C (second compound 9.49 µM, first compound 0.00316 µM): 82.7%
- viability, T/C (second compound 9.49 µM, first compound 0.01 µM): 7.48%
- viability, T/C (second compound 30 µM, first compound 31.6 pM): 86.8%
- viability, T/C (second compound 30 µM, first compound 0.0001 µM): 83.7%
- viability, T/C (second compound 30 µM, first compound 0.000316 µM): 75.4%
- viability, T/C (second compound 30 µM, first compound 0.001 µM): 78%
- viability, T/C (second compound 30 µM, first compound 0.00316 µM): 84.1%
- viability, T/C (second compound 30 µM, first compound 0.01 µM): 5.06%

From PubChem BioAssay AID2060351 (Molecular Pharmacology Branch, DTP, NCI, 2025)
